Assay results from US8946203B2, “Benzodioxane inhibitors of leukotriene production” (Boehringer Ingelheim International GmbH, priority 2012, dated 2015).
Where two headings read alike, the source gives them in different places.

Tests used:
[1] = test system: synthesis of LTB4 in human whole blood; test: human whole blood (HWB) assay, LTB4 production inhibition after calcimycin stimulation; assay type: cell-based; settings: heparinized human whole blood, calcimycin 20 μM, plasma LTB4 by HTRF
Protocol: The compounds of the invention are additionally tested in a human whole blood (HWB) assay to determine their ability to inhibit the synthesis of LTB4 in a cellular system. Compounds are combined with heparinized human whole blood and incubated for 15 minutes at 37° C. Calcimycin (20 μM final, prepared in phosphate-buffered saline, pH 7.4) is then added and the mixture is incubated for another 30 minutes at 37° C. The samples are centrifuged for 5 min at low speed (1500×g) and the plasma layer is removed. Plasma LTB4 concentrations are then measured using an antibody-based homogenous time-resolved fluorescence method (CisBio, Bedford, Mass.). In general, the preferred potency range (IC50) of compounds in the HWB assay is between 10 nM to 10 μM, the more preferred potency range is 10 nM to 1 μM, and the most preferred potency range is 10 nM to 100 nM.

human LTA4 hydrolase = target: T1, human LTA4 hydrolase (Homo sapiens, UniProt P09960); test: LTA4H Enzyme assay (cleavage of Arg-AMC, fluorescence); assay type: biochemical
T1 sequence (P09960 1-611): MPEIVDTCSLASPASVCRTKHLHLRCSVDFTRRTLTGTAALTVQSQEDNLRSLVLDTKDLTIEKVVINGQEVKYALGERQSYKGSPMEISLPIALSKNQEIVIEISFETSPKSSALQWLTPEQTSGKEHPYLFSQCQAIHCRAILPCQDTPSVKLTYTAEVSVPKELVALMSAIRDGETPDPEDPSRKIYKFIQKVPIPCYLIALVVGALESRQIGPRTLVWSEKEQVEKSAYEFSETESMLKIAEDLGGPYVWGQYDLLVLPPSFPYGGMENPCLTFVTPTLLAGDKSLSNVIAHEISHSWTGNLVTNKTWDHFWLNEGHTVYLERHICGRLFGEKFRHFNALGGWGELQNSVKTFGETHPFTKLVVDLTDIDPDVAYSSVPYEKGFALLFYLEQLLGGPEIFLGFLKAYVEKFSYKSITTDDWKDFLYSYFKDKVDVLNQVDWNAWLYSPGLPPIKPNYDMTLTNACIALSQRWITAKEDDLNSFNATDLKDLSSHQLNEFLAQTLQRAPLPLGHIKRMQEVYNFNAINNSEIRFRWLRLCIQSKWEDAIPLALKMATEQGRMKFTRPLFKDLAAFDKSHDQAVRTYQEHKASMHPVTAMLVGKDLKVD
Procedure, shortened: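 Peptidase activity of human LTA4H (1 nM final) on Arg-AMC (50 μM final), with compound, 1 h at room temperature. Buffer: 50 mM Tris-HCl pH 7.5, 100 mM KCl, 0.5% BSA.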

[2] = LTA4H Enzyme 1 nM, Arg-AMC substrate 50 μM, room temperature 1 h, fluorescence, read-out: IC50 values of LTA4H Enzyme assay

| IC50 [1] [nM] | IC50 (human LTA4 hydrolase; [2]) [nM] | Structure (SMILES) | IC50 (human LTA4 hydrolase) [nM] |
| --- | --- | --- | --- |
| 176 | 1.14 | c1cnc2c(c1)OCC(c1ccc(CN3CCOCC3)cc1)O2 (racemic) [Example 18, 3-[4-(morpholin-4-ylmethyl)phenyl]-2,3-dihydro[1,4]dioxino[2,3-b]pyridine] |  |
| 308 | 0.43 | O=C(O)CCCC1CCN(Cc2ccc(C3COc4ccccc4O3)cc2)CC1 (racemic) [Example 26, 4-{1-[4-(2,3-dihydro-1,4-benzodioxin-2-yl)benzyl]piperidin-4-yl}butanoic acid] |  |
| 324 | 1.05 | O=C(C1CCN(Cc2ccc(C3COc4ccccc4O3)cc2)CC1)N1CCOCC1 (racemic) [Example 37, {1-[4-(2,3-dihydro-1,4-benzodioxin-2-yl)benzyl]piperidin-4-yl}(morpholin-4-yl)methanone] |  |
| 145 | 0.75 | O=C(NCCO)C1CCN(Cc2ccc(C3COc4ccccc4O3)cc2)CC1 (racemic) [Example 52, 1-[4-(2,3-dihydro-1,4-benzodioxin-2-yl)benzyl]-N-(2-hydroxyethyl)piperidine-4-carboxamide] |  |
| 155 | 0.42 | NC(=O)NC1CCN(Cc2ccc(C3COc4ccccc4O3)cc2)CC1 (racemic) [Example 53, 1-{1-[4-(2,3-dihydro-1,4-benzodioxin-2-yl)benzyl]piperidin-4-yl}urea] |  |
| 155 | 0.27 | CC(=O)N1CCC(N(C)Cc2ccc([C@H]3COc4ccccc4O3)cc2)CC1 [Example 14, 1-{4-[{4-[(2S)-2,3-dihydro-1,4-benzodioxin-2-yl]benzyl}(methyl)amino]piperidin-1-yl}ethanone] |  |
| 250 | 0.6 | O=C(O)C1CCN(Cc2ccc([C@H]3COc4ccccc4O3)cc2)C1 (stereo partly drawn) [Example 61, 1-{4-[(2S)-2,3-dihydro-1,4-benzodioxin-2-yl]benzyl}pyrrolidine-3-carboxylic acid] |  |
| 346 | 0.61 | CN(Cc1ccc([C@H]2COc3ccccc3O2)cc1)C1CCCCC1 [Example 67, N-{4-[(2S)-2,3-dihydro-1,4-benzodioxin-2-yl]benzyl}-N-methylcyclohexanamine] |  |
| 81 | 0.1 | CC1CCCCN1Cc1ccc([C@H]2COc3ccccc3O2)cc1 (stereo partly drawn) [Example 68, 1-{4-[(2S)-2,3-dihydro-1,4-benzodioxin-2-yl]benzyl}-2-methylpiperidine] |  |
| 165 | 0.6 | OCC1CCCN(Cc2ccc([C@H]3COc4ccccc4O3)cc2)C1 (stereo partly drawn) [Example 69, (1-{4-[(2S)-2,3-dihydro-1,4-benzodioxin-2-yl]benzyl}piperidin-3-yl)methanol] |  |
| 81 | 0.31 | CN(Cc1ccc([C@H]2COc3ccccc3O2)cc1)C(C)(C)C [Example 81, N-{4-[(2S)-2,3-dihydro-1,4-benzodioxin-2-yl]benzyl}-N,2-dimethylpropan-2-amine] |  |
| 33 | 0.13 | CC(=O)N(C)C1CCN(Cc2ccc([C@H]3COc4ccccc4O3)cc2)C1 (stereo partly drawn) [Example 83, N-(1-{4-[(2S)-2,3-dihydro-1,4-benzodioxin-2-yl]benzyl}pyrrolidin-3-yl)-N-methylacetamide] |  |
| 95 | 0.37 | O=C1CCCN1CC1CCN(Cc2ccc([C@H]3COc4ccccc4O3)cc2)CC1 [Example 99, 1-[(1-{4-[(2S)-2,3-dihydro-1,4-benzodioxin-2-yl]benzyl}piperidin-4-yl)methyl]pyrrolidin-2-one] |  |
| 76 | 0.17 | CCN(Cc1ccc([C@H]2COc3ccccc3O2)cc1)C1CCCC1 [Example 109, N-{4-[(2S)-2,3-dihydro-1,4-benzodioxin-2-yl]benzyl}-N-ethylcyclopentanamine] |  |
| 310 | 0.82 | O=C1NCCCC12CCN(Cc1ccc([C@H]3COc4ccccc4O3)cc1)CC2 [Example 116, 9-{4-[(2S)-2,3-dihydro-1,4-benzodioxin-2-yl]benzyl}-2,9-diazaspiro[5.5]undecan-1-one] |  |
| 256 | 0.45 | CC(=O)N1CCCC12CCN(Cc1ccc([C@H]3COc4ccccc4O3)cc1)C2 (stereo partly drawn) [Example 118, 1-(7-{4-[(2S)-2,3-dihydro-1,4-benzodioxin-2-yl]benzyl}-1,7-diazaspiro[4.4]non-1-yl)ethanone] |  |
| 159 | 0.37 | CN1CCC2(CCN(Cc3ccc([C@H]4COc5ccccc5O4)cc3)CC2)C1=O [Example 121, 8-{4-[(2S)-2,3-dihydro-1,4-benzodioxin-2-yl]benzyl}-2-methyl-2,8-diazaspiro[4.5]decan-1-one] |  |
| 312 | 0.73 | NC(=O)CN1CCCC12CCN(Cc1ccc([C@H]3COc4ccccc4O3)cc1)C2 (stereo partly drawn) [Example 123, 2-(7-{4-[(2S)-2,3-dihydro-1,4-benzodioxin-2-yl]benzyl}-1,7-diazaspiro[4.4]non-1-yl)acetamide] |  |
| 39 | 0.16 | O=C1NCCC12CCN(Cc1ccc([C@H]3COc4cccnc4O3)cc1)CC2 [Example 125, 8-[(S)-4-(2,3-Dihydro-[1,4]dioxino[2,3-b]pyridin-3-yl)-benzyl]-2,8-diaza-spiro[4.5]decan-1-one] |  |
| 32 | 0.18 | c1cnc2c(c1)OC[C@H](c1ccc(CN3CCCC3)cc1)O2 [Example 126, (3S)-3-[4-(pyrrolidin-1-ylmethyl)phenyl]-2,3-dihydro[1,4]dioxino[2,3-b]pyridine] |  |
| 95 | 0.47 | O=C(O)CCC1CCN(Cc2ccc([C@H]3COc4ccccc4O3)cc2)CC1 [Example 134, 3-(1-{4-[(2S)-2,3-dihydro-1,4-benzodioxin-2-yl]benzyl}piperidin-4-yl)propionic acid] |  |
| 28 | 0.26 | CC1CCN(Cc2ccc([C@H]3COc4cccnc4O3)cc2)CC1 [Example 137, (3S)-3-{4-[(4-methylpiperidin-1-yl)methyl]phenyl}-2,3-dihydro[1,4]dioxino[2,3-b]pyridine] |  |
| 76 | 0.18 | CN(CCc1ccccn1)Cc1ccc([C@H]2COc3cccnc3O2)cc1 [Example 138, N-{4-[(3S)-2,3-dihydro[1,4]dioxino[2,3-b]pyridin-3-yl]benzyl}-N-methyl-2-(pyridin-2-yl)ethanamine] |  |
| 13 | 0.1 | c1cnc2c(c1)OC[C@H](c1ccc(CN3CCCCCC3)cc1)O2 [Example 139, (3S)-3-[4-(azepan-1-ylmethyl)phenyl]-2,3-dihydro[1,4]dioxino[2,3-b]pyridine] |  |
| 33 | 0.38 | CCN(C)Cc1ccc([C@H]2COc3cccnc3O2)cc1 [Example 140, N-{4-[(3S)-2,3-dihydro[1,4]dioxino[2,3-b]pyridin-3-yl]benzyl}-N-methylethanamine] |  |
| 33 | 0.26 | CCN(CC)Cc1ccc([C@H]2COc3cccnc3O2)cc1 [Example 141, N-{4-[(3S)-2,3-dihydro[1,4]dioxino[2,3-b]pyridin-3-yl]benzyl}-N-ethylethanamine] |  |
| 24 | 0.17 | CN(Cc1ccc([C@H]2COc3cccnc3O2)cc1)C1CCCC1 [Example 142, N-{4-[(3S)-2,3-dihydro[1,4]dioxino[2,3-b]pyridin-3-yl]benzyl}-N-methylcyclopentanamine] |  |

| Structure (SMILES) | IC50 [1] [nM] | IC50 (human LTA4 hydrolase; [2]) [nM] | IC50 (human LTA4 hydrolase) [nM] |
| --- | --- | --- | --- |
| CNC(=O)C1CCN(Cc2ccc(C3COc4ccccc4O3)cc2)CC1 (racemic) [Example 25, 1-[4-(2,3-Dihydro-benzo[1,4]dioxin-2-yl)-benzyl]-piperidine-4-carboxylic acid methylamide] | 294 | 0.76 |  |
| CC(=O)N1CC[C@@H](NCc2ccc([C@H]3COc4ccccc4O3)cc2)C1 [Example 64, 1-[(3R)-3-({4-[(2S)-2,3-dihydro-1,4-benzodioxin-2-yl]benzyl}amino)pyrrolidin-1-yl]ethanone] | 158 | 0.83 |  |
| OC[C@H]1CCCC[C@H]1NCc1ccc([C@H]2COc3ccccc3O2)cc1 [Example 87, [(1S,2R)-2-({4-[(2S)-2,3-dihydro-1,4-benzodioxin-2-yl]benzyl}amino)cyclohexyl]methanol] | 268 | 0.69 |  |
| c1cnc2c(c1)OC[C@H](c1ccc(CN3[C@H]4CC[C@@H]3CC4)cc1)O2 [Example 145, (3S)-3-{4-[(1s,4s)-7-azabicyclo[2.2.1]hept-7-ylmethyl]phenyl}-2,3-dihydro[1,4]dioxino[2,3-b]pyridine] | 28 |  | 0.09 |
